Inhibition and Ki data for three molecules are collected here from ChEMBL document CHEMBL2029272, “7-Azabicyclo[2.2.1]heptane as a scaffold for the development of selective sigma-2 (σ2) receptor ligands” (Bioorg Med Chem Lett, 2012).

Experiment [1] deals with T1, 5-hydroxytryptamine receptor 3A (Homo sapiens) (UniProt P46098).
T1 sequence (whole entry): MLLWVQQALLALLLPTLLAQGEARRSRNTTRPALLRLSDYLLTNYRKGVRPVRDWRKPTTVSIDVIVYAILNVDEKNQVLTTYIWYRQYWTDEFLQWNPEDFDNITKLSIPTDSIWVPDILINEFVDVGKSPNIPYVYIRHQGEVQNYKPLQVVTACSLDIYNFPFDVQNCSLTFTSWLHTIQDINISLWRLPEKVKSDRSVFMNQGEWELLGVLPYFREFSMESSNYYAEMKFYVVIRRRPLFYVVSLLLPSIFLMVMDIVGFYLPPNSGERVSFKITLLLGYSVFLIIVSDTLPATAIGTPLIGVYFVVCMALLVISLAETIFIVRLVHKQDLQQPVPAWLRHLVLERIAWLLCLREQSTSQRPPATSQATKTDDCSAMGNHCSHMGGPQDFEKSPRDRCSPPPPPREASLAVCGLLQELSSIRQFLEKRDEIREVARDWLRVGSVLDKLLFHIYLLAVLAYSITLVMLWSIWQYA
In words: Inhibition of 5-HT3 receptor at 10 uM.

For experiment [2], the target named is Muscarinic acetylcholine receptor M2 (Homo sapiens, UniProt P08172). In words: Inhibition of M2 muscarinic receptor.
A short description of experiment [3]: Inhibition of GABA-A receptor at 10 uM.
For experiment [4], the target named is Beta-3 adrenergic receptor (Homo sapiens) (UniProt P13945). In words: Inhibition of beta3 adrenergic receptor at 10 uM.
Chain of Beta-3 adrenergic receptor (Homo sapiens) (P13945 whole entry, looked up): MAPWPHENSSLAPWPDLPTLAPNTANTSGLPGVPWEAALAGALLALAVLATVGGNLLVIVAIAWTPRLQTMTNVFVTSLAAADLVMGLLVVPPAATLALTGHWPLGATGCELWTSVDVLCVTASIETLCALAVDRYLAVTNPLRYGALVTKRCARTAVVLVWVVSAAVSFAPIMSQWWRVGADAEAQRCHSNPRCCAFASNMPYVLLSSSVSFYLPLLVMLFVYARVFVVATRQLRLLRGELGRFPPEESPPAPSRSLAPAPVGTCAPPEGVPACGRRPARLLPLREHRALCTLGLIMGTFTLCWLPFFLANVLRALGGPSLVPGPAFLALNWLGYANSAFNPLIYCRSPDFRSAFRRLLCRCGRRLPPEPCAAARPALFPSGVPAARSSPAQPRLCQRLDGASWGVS
In experiment [5] the target is Histamine H1 receptor (Homo sapiens) (UniProt P35367). Briefly: Inhibition of H1 receptor at 10 uM.
Chain of Histamine H1 receptor (Homo sapiens) (P35367 whole entry): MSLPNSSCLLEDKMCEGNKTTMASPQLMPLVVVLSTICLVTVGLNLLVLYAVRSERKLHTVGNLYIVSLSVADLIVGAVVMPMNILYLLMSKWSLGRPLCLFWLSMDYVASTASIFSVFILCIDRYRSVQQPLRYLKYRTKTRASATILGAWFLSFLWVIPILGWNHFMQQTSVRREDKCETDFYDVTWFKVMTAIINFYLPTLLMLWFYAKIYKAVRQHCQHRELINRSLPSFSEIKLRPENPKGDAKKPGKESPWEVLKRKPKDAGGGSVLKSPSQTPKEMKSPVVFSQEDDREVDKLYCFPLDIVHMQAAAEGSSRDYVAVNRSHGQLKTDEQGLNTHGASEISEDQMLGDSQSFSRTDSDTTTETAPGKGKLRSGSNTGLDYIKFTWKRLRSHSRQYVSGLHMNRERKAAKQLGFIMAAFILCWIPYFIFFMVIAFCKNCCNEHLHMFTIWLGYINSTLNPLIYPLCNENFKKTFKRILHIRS
Experiment [6] concerns the target Alpha-1B adrenergic receptor (Homo sapiens) (UniProt P35368). Briefly: Inhibition of alpha1B adrenergic receptor at 10 uM.
For experiment [7], the target named is 5-hydroxytryptamine receptor 1E (Homo sapiens) (UniProt P28566). In words: Inhibition of 5-HT1E receptor at 10 uM.
Chain of 5-hydroxytryptamine receptor 1E (Homo sapiens) (P28566 whole entry): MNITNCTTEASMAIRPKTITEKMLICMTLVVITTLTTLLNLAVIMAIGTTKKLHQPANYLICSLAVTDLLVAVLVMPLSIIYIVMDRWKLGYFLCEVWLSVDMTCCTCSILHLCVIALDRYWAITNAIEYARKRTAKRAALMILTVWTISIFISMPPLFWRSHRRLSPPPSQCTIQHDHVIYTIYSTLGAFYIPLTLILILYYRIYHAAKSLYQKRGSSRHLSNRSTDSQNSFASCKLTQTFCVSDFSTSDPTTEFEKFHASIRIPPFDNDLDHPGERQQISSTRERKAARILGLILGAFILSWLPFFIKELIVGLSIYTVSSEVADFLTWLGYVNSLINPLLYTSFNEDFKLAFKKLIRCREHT
The target of experiment [8] is T2, 5-hydroxytryptamine receptor 1A (Homo sapiens) (UniProt P08908).
T2 sequence (whole entry): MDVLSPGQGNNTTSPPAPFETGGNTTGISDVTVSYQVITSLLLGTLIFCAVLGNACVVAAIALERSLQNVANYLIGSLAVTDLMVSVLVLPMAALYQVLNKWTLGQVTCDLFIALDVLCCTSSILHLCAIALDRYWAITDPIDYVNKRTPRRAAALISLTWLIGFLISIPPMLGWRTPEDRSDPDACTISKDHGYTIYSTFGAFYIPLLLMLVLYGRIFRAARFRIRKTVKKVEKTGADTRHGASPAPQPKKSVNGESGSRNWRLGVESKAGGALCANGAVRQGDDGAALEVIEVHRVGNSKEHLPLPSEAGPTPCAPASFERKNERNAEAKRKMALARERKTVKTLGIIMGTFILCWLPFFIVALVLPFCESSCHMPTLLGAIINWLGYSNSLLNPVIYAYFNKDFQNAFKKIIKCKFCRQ
Briefly: Inhibition of 5-HT1A receptor at 10 uM.

In experiment [9] the target is 5-hydroxytryptamine receptor 5A (Homo sapiens) (UniProt P47898). In words: Inhibition of 5-HT5A receptor at 10 uM.
Chain of 5-hydroxytryptamine receptor 5A (Homo sapiens) (P47898 whole entry): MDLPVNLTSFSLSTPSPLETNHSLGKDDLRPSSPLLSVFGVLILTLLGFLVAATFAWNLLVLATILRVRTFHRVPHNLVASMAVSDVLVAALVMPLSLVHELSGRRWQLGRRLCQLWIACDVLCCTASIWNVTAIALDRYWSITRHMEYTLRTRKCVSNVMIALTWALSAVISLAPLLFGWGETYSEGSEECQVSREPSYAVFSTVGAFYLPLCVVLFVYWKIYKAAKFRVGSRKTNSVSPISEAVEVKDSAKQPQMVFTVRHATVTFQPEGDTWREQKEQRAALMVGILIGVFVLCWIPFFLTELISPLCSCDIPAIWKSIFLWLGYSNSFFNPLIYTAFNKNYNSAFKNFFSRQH
Experiment [10] addresses Sigma non-opioid intracellular receptor 1 (Rattus norvegicus, UniProt Q9R0C9). Briefly: Displacement of [3H](+)-pentazocine from sigma1 receptor in rat brain homogenate. The format is tissue-based. A general note: Loss of bound radioactivity is the signal in a displacement assay; it reports binding, not function.
In the next experiment the target is D(2) dopamine receptor (Homo sapiens, UniProt P14416). Briefly: Inhibition of D2 dopamine receptor at 10 uM.
Chain of D(2) dopamine receptor (P14416 whole entry): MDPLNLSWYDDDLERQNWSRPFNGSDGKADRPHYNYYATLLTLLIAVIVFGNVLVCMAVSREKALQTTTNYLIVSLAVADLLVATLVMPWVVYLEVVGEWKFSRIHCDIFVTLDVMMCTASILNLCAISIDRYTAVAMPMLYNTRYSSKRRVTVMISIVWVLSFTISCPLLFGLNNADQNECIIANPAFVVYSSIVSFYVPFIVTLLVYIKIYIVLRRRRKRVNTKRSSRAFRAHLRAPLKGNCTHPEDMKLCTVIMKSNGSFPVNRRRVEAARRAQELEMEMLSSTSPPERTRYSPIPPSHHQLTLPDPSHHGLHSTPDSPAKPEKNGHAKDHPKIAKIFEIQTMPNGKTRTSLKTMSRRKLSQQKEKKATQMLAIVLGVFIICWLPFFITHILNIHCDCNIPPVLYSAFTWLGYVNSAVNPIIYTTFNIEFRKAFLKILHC
Experiment [11] has as its target 5-hydroxytryptamine receptor 1B (Homo sapiens) (UniProt P28222). Briefly: Inhibition of 5-HT1B receptor at 10 uM.
Experiment [12] addresses T3, Muscarinic acetylcholine receptor M5 (Homo sapiens, UniProt P08912).
T3 sequence (P08912 whole entry): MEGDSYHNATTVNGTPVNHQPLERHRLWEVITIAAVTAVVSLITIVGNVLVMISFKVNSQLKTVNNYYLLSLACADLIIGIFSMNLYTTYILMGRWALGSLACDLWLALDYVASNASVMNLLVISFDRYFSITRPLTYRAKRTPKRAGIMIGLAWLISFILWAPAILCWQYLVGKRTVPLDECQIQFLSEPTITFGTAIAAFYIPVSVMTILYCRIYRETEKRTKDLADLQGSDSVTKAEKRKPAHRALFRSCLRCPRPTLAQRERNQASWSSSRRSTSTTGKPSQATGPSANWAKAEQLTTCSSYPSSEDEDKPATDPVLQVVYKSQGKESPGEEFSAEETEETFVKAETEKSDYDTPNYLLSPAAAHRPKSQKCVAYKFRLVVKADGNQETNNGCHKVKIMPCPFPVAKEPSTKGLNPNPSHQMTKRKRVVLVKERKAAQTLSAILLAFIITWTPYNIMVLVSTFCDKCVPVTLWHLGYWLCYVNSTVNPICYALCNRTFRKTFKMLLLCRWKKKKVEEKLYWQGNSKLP
In words: Inhibition of M5 muscarinic receptor.

The target in experiment [13] is Delta-type opioid receptor (Homo sapiens) (UniProt P41143). In words: Inhibition of delta opioid receptor at 10 uM.
The target of experiment [14] is Beta-1 adrenergic receptor (Homo sapiens) (UniProt P08588). Briefly: Inhibition of beta1 adrenergic receptor at 10 uM.
Chain of Beta-1 adrenergic receptor (Homo sapiens) (P08588 whole entry, looked up): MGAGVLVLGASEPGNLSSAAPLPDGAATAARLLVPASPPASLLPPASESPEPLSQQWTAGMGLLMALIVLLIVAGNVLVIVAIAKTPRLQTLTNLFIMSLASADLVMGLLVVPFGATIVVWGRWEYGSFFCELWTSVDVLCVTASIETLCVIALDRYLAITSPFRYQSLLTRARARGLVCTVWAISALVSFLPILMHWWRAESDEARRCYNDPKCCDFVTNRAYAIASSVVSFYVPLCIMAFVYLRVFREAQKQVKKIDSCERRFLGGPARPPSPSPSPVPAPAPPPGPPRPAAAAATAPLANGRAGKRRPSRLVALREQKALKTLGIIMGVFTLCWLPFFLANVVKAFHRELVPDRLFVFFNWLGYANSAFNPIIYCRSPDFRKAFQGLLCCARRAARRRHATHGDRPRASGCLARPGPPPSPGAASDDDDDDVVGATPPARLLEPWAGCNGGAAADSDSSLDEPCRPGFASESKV
Experiment [15] deals with Sodium-dependent noradrenaline transporter (Homo sapiens) (UniProt P23975). Briefly: Inhibition of NET at 10 uM.
Chain of Sodium-dependent noradrenaline transporter (Homo sapiens) (P23975 whole entry): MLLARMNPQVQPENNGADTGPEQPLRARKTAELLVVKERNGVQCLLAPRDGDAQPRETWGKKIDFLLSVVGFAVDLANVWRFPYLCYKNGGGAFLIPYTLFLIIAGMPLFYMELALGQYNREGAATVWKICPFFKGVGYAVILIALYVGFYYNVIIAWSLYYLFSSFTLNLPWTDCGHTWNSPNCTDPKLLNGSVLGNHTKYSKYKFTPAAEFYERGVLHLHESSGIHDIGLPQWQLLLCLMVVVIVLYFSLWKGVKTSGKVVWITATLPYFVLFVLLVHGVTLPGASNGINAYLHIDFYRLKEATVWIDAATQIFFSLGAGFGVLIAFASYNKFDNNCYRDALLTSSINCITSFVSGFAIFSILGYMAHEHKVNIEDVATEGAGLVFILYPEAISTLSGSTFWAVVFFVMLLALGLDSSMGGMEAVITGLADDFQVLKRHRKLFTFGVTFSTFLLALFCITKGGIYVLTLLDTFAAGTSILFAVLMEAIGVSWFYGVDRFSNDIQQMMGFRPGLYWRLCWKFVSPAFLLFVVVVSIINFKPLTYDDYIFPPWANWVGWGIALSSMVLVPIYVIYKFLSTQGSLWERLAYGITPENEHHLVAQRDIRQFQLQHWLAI
The target of experiment [16] is Muscarinic acetylcholine receptor M1 (Homo sapiens, UniProt P11229). Briefly: Inhibition of M1 muscarinic receptor.
In the next experiment the target is Histamine H3 receptor (Homo sapiens, UniProt Q9Y5N1). In words: Inhibition of H3 receptor at 10 uM.
Chain of Histamine H3 receptor (Q9Y5N1 whole entry): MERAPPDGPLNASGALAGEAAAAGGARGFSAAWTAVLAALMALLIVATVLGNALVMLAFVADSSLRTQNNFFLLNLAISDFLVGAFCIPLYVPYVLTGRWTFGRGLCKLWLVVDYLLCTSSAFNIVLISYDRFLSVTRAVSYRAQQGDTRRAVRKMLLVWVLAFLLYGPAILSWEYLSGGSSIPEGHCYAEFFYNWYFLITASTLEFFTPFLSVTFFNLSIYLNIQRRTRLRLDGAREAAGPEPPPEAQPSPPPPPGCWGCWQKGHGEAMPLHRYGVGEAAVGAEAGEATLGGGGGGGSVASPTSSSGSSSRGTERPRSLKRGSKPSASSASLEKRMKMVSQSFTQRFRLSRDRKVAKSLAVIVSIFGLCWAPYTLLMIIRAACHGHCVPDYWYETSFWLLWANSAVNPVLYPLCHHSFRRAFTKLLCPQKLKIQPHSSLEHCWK
Experiment [17] has as its target T4, Alpha-1A adrenergic receptor (Homo sapiens) (UniProt P35348).
T4 sequence (whole entry): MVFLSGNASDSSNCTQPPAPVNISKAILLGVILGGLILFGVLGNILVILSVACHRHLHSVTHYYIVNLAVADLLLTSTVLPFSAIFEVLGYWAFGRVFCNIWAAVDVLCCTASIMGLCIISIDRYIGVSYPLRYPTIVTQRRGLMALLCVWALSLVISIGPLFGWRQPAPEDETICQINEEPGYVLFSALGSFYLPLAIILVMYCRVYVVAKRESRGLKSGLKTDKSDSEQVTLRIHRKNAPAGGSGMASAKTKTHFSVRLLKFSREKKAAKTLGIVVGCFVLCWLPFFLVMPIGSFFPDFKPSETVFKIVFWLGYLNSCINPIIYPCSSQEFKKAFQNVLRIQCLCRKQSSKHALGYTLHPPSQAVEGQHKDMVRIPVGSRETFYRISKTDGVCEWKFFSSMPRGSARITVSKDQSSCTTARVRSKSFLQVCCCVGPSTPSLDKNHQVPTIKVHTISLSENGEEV
Briefly: Inhibition of alpha1A adrenergic receptor at 10 uM.

For experiment [18], the target named is D(1A) dopamine receptor (Homo sapiens) (UniProt P21728). In words: Inhibition of D1 dopamine receptor at 10 uM.
Chain of D(1A) dopamine receptor (Homo sapiens) (P21728 whole entry): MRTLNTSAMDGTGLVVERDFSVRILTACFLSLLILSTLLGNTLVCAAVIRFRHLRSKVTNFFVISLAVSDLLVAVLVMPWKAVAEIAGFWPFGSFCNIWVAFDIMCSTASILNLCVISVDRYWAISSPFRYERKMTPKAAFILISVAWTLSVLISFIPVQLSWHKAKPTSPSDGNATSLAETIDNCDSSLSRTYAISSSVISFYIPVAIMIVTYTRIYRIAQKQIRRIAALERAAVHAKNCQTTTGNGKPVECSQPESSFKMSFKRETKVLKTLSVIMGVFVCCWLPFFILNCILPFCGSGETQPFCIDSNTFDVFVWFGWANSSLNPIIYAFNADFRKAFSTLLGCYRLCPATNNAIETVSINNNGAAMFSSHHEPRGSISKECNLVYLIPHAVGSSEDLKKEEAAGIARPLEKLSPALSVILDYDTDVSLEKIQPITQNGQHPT
The target of experiment [19] is 5-hydroxytryptamine receptor 1D (Homo sapiens) (UniProt P28221). In words: Inhibition of 5-HT1D receptor at 10 uM.
Chain of 5-hydroxytryptamine receptor 1D (Homo sapiens) (P28221 whole entry): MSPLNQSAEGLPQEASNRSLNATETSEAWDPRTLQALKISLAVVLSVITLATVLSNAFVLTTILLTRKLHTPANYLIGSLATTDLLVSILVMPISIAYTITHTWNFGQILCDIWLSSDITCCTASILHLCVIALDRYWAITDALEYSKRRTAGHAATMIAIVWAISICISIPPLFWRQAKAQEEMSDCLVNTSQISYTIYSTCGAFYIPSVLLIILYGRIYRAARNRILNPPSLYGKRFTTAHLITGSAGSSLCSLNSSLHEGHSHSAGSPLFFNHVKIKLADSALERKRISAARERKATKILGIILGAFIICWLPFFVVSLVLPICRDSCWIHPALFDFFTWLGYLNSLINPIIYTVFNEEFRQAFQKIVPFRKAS
Experiment [20] addresses Alpha-2C adrenergic receptor (Homo sapiens, UniProt P18825). In words: Inhibition of alpha2C adrenergic receptor.

Chain of 5-hydroxytryptamine receptor 1B (Homo sapiens) (P28222 whole entry): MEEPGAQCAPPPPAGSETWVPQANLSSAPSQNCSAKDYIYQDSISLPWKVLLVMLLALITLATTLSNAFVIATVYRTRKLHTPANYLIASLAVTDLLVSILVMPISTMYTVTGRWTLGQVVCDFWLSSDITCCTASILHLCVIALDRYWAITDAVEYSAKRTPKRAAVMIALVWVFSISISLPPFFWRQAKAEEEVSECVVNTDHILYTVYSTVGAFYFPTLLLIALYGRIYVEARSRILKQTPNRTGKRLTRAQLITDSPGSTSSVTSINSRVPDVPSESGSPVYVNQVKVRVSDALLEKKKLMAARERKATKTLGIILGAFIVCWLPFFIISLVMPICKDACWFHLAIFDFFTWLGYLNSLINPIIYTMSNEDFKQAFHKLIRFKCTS

For the molecule `C1CCC(CN2C3CCC2CC3)CC1`, the inhibition in experiment [1], in experiment [3], in experiment [4], in experiment [5], in [6] and in experiment [7] was less than 50% each time. For the same molecule, the inhibition (in experiment [8]; in experiment [9]; against D(2) dopamine receptor; in experiment [11]; in experiment [13]; in experiment [14]) was less than 50% each time. Further, the inhibition (in experiment [15]; at Histamine H3 receptor; in [17]; in [18]; in experiment [19]) was less than 50% throughout. Besides, the inhibitory constant (Ki) (usually a dissociation constant, usually derived from enzyme kinetics or from competition with a known ligand) is 4740 nM in experiment [2], 22 nM in experiment [10], 2670 nM in experiment [12] and 5540 nM in experiment [16].
`C1CCC(CN2CCCC2)CC1`: the inhibition in experiment [1], in experiment [3], in [4], in [5], in experiment [6] and in experiment [7] was less than 50% each time. The inhibition (in experiment [8]; in experiment [9]; at D(2) dopamine receptor; in experiment [11]; in [13]; in experiment [14]) was less than 50% each time. The inhibition (in experiment [15]; on Histamine H3 receptor; in [17]; in experiment [18]; in experiment [19]) was less than 50% in each case. Further, the Ki in experiment [20] is 862 nM; in experiment [10], 51 nM; in experiment [12], 2690 nM.
For the molecule `C1CC2CCC1N2CC12C3C4C5C3C1C5C42` (configuration not stated), the inhibition in [1], in [3], in experiment [4], in [5], in [7] and in experiment [8] was less than 50% in each case. Also, the inhibition (in [9]; at D(2) dopamine receptor; in [11]; in [13]; in experiment [14]; in [15]) was less than 50% in each case. Besides, the inhibition (against Histamine H3 receptor; in experiment [17]; in experiment [18]; in [19]) was less than 50% in each case. Besides, the inhibition constant Ki in experiment [2] was determined as 696 nM; in experiment [20] it was 4260 nM; in experiment [10], 7 nM; in experiment [12], 802 nM; in experiment [16] it was 7960 nM.
